Data published in patent US20110124740A1, “NOVEL DIARYL HEPATONOID-BASED COMPOUNDS AND USE THEREOF” (priority 2008, published 2011).
Where two headings read alike, the source gives them in different places.

Key:
[1] = test system: avian influenza virus KBNP-0028 (KCTC 10866BP); type: cell-based, A/chicken/Korea/SNU0028/2000(H9N2)
[2] = test system: CEF (chicken embryo fibroblasts)

## O=C(CCc1ccc(O)c(O)c1)C[C@H](O)CCc1ccc(O)c(O)c1 [12B-AJ-15A, (5R)-1,7-bis(3,4-dihydroxyphenyl)-5-hydroxyheptane-3-one]
[1]
  Antiviral activity (in words): had antiviral activity
[1]; 12.5 μg/mL
  Number of wells wherein hemagglutination occurs (among 6 wells): 3
[1]; 25 μg/mL
  Number of wells wherein hemagglutination occurs (among 6 wells): 3
[1]; 50 μg/mL
  Number of wells wherein hemagglutination occurs (among 6 wells): 3
[1]; 100 μg/mL
  Number of wells wherein hemagglutination occurs (among 6 wells): 3
[2]
  Cytotoxicity (in words): no cytotoxicity
[2]; 6.25 μg/mL
  Cytotoxicity (MTT assay value): 0.457
[2]; 12.5 μg/mL
  Cytotoxicity (MTT assay value): 0.369
[2]; 25 μg/mL
  Cytotoxicity (MTT assay value): 0.320
[2]; 50 μg/mL
  Cytotoxicity (MTT assay value): 0.369
[2]; 100 μg/mL
  Cytotoxicity (MTT assay value): 0.423
[2]; 200 μg/mL
  Cytotoxicity (MTT assay value): 0.538
